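Step 1: Grow cells in 96-well plates. Step 2: Expose to compound for 48 hours at 5 concentrations. Step 3: Interpolate endpoints linearly; if unreached, use highest concentration. TGI marks complete inhibition of growth.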
What was measured:
Assay in all cases: NCI tumour cell line growth inhibition, 48 h
EKVX NSCLC = system: EKVX NSCLC
SNB-78 CNS = system: SNB-78 CNS
SNB-19 CNS = system: SNB-19 CNS
IGROV1 ovarian = system: IGROV1 ovarian
NCI-H23 lung = system: NCI-H23 lung
MALME-3M melanoma = system: MALME-3M melanoma
U251 CNS = system: U251 CNS
SK-MEL-2 melanoma = system: SK-MEL-2 melanoma
ACHN renal = system: ACHN renal
SN12C renal = system: SN12C renal
NCI-H226 lung = system: NCI-H226 lung
SW-620 colon = system: SW-620 colon
DMS 273 small cell lung = system: DMS 273 small cell lung
K-562 leukemia = system: K-562 leukemia
DLD-1 colon = system: DLD-1 colon
KM12 colon = system: KM12 colon
HCT-116 colon = system: HCT-116 colon
KM20L2 colon = system: KM20L2 colon
HOP-92 NSCLC = system: HOP-92 NSCLC
RXF-631 renal = system: RXF-631 renal
UACC-257 melanoma = system: UACC-257 melanoma
M19-MEL melanoma = system: M19-MEL melanoma
A549 NSCLC = system: A549 NSCLC
XF 498 CNS = system: XF 498 CNS
LXFL 529 NSCLC = system: LXFL 529 NSCLC
HCC-2998 colon = system: HCC-2998 colon
RPMI-8226 leukemia = system: RPMI-8226 leukemia
RXF 393 renal = system: RXF 393 renal
SNB-75 CNS = system: SNB-75 CNS
SF-539 CNS = system: SF-539 CNS
SF-268 CNS = system: SF-268 CNS
OVCAR-8 ovarian = system: OVCAR-8 ovarian
HT29 colon = system: HT29 colon
DMS 114 small cell lung = system: DMS 114 small cell lung
MOLT-4 leukemia = system: MOLT-4 leukemia
SK-MEL-28 melanoma = system: SK-MEL-28 melanoma
M14 melanoma = system: M14 melanoma
TK-10 renal = system: TK-10 renal
SF-295 CNS = system: SF-295 CNS
UACC-62 melanoma = system: UACC-62 melanoma
786-0 renal = system: 786-0 renal
UO-31 renal = system: UO-31 renal
HOP-18 NSCLC = system: HOP-18 NSCLC
SK-MEL-5 melanoma = system: SK-MEL-5 melanoma
HCT-15 colon = system: HCT-15 colon
HOP-62 NSCLC = system: HOP-62 NSCLC
HL-60(TB) leukemia = system: HL-60(TB) leukemia
NCI-H522 lung = system: NCI-H522 lung
NCI-H460 lung = system: NCI-H460 lung
SR leukemia = system: SR leukemia
OVCAR-3 ovarian = system: OVCAR-3 ovarian
LOX IMVI melanoma = system: LOX IMVI melanoma
COLO 205 colon = system: COLO 205 colon
CCRF-CEM leukemia = system: CCRF-CEM leukemia
OVCAR-5 ovarian = system: OVCAR-5 ovarian
SK-OV-3 ovarian = system: SK-OV-3 ovarian
A498 renal = system: A498 renal
OVCAR-4 ovarian = system: OVCAR-4 ovarian
CAKI-1 renal = system: CAKI-1 renal

SMILES: COc1cc2c(Cc3cc(OCc4ccccc4)ccc3N)nccc2c(OC)c1OC
- TGI (EKVX NSCLC): > 10 µM
- TGI (SNB-78 CNS): > 10 µM
- TGI (SNB-19 CNS): > 10 µM
- TGI (IGROV1 ovarian): > 10 µM
- TGI (NCI-H23 lung): > 10 µM
- TGI (MALME-3M melanoma): > 10 µM
- TGI (U251 CNS): > 10 µM
- TGI (SK-MEL-2 melanoma): > 10 µM
- TGI (ACHN renal): > 10 µM
- TGI (SN12C renal): > 10 µM
- TGI (NCI-H226 lung): > 10 µM
- TGI (SW-620 colon): > 10 µM
- TGI (DMS 273 small cell lung): > 10 µM
- TGI (K-562 leukemia): > 10 µM
- TGI (DLD-1 colon): > 10 µM
- TGI (KM12 colon): > 10 µM
- TGI (HCT-116 colon): > 10 µM
- TGI (KM20L2 colon): > 10 µM
- TGI (HOP-92 NSCLC): > 10 µM
- TGI (RXF-631 renal): > 10 µM
- TGI (UACC-257 melanoma): > 10 µM
- TGI (M19-MEL melanoma): > 10 µM
- TGI (A549 NSCLC): > 10 µM
- TGI (XF 498 CNS): > 10 µM
- TGI (LXFL 529 NSCLC): > 10 µM
- TGI (HCC-2998 colon): > 10 µM
- TGI (RPMI-8226 leukemia): > 10 µM
- TGI (RXF 393 renal): > 10 µM
- TGI (SNB-75 CNS): > 10 µM
- TGI (SF-539 CNS): > 10 µM
- TGI (SF-268 CNS): > 10 µM
- TGI (OVCAR-8 ovarian): > 10 µM
- TGI (HT29 colon): > 10 µM
- TGI (DMS 114 small cell lung): > 10 µM
- TGI (MOLT-4 leukemia): > 10 µM
- TGI (SK-MEL-28 melanoma): > 10 µM
- TGI (M14 melanoma): > 10 µM
- TGI (TK-10 renal): > 10 µM
- TGI (SF-295 CNS): > 10 µM
- TGI (UACC-62 melanoma): > 10 µM
- TGI (786-0 renal): > 10 µM
- TGI (UO-31 renal): > 10 µM
- TGI (HOP-18 NSCLC): > 10 µM
- TGI (SK-MEL-5 melanoma): > 10 µM
- TGI (HCT-15 colon): > 10 µM
- TGI (HOP-62 NSCLC): > 10 µM
- TGI (HL-60(TB) leukemia): > 10 µM
- TGI (NCI-H522 lung): > 10 µM
- TGI (NCI-H460 lung): > 10 µM
- TGI (SR leukemia): > 10 µM
- TGI (OVCAR-3 ovarian): > 10 µM
- TGI (LOX IMVI melanoma): > 10 µM
- TGI (COLO 205 colon): > 10 µM
- TGI (CCRF-CEM leukemia): > 10 µM
- TGI (OVCAR-5 ovarian): > 10 µM
- TGI (SK-OV-3 ovarian): > 10 µM

SMILES: CC(C)c1cccc(C(C)C)c1NC(=O)C(=O)C1SC(=S)NC1=O (stereo not drawn)
- TGI (EKVX NSCLC): > 100 µM
- TGI (SNB-78 CNS): > 100 µM
- TGI (SNB-19 CNS): > 100 µM
- TGI (IGROV1 ovarian): > 100 µM
- TGI (NCI-H23 lung): > 100 µM
- TGI (MALME-3M melanoma): > 100 µM
- TGI (A498 renal): > 100 µM
- TGI (U251 CNS): > 100 µM
- TGI (SK-MEL-2 melanoma): > 100 µM
- TGI (ACHN renal): > 100 µM
- TGI (SN12C renal): > 100 µM
- TGI (NCI-H226 lung): > 100 µM
- TGI (OVCAR-4 ovarian): > 100 µM
- TGI (SW-620 colon): > 100 µM
- TGI (DMS 273 small cell lung): > 100 µM
- TGI (K-562 leukemia): > 100 µM
- TGI (DLD-1 colon): > 100 µM
- TGI (KM12 colon): > 100 µM
- TGI (HCT-116 colon): > 100 µM
- TGI (KM20L2 colon): > 100 µM
- TGI (HOP-92 NSCLC): > 100 µM
- TGI (RXF-631 renal): > 100 µM
- TGI (UACC-257 melanoma): > 100 µM
- TGI (M19-MEL melanoma): > 100 µM
- TGI (A549 NSCLC): > 100 µM
- TGI (XF 498 CNS): > 100 µM
- TGI (LXFL 529 NSCLC): > 100 µM
- TGI (RPMI-8226 leukemia): > 100 µM
- TGI (RXF 393 renal): > 100 µM
- TGI (SNB-75 CNS): > 100 µM
- TGI (SF-539 CNS): > 100 µM
- TGI (SF-268 CNS): > 100 µM
- TGI (OVCAR-8 ovarian): > 100 µM
- TGI (HT29 colon): > 100 µM
- TGI (MOLT-4 leukemia): > 100 µM
- TGI (SK-MEL-28 melanoma): > 100 µM
- TGI (M14 melanoma): > 100 µM
- TGI (TK-10 renal): > 100 µM
- TGI (SF-295 CNS): > 100 µM
- TGI (CAKI-1 renal): > 100 µM
- TGI (UACC-62 melanoma): > 100 µM
- TGI (786-0 renal): > 100 µM
- TGI (UO-31 renal): > 100 µM
- TGI (HOP-18 NSCLC): > 100 µM
- TGI (SK-MEL-5 melanoma): > 100 µM
- TGI (HCT-15 colon): > 100 µM
- TGI (HOP-62 NSCLC): > 100 µM
- TGI (HL-60(TB) leukemia): > 100 µM
- TGI (NCI-H522 lung): > 100 µM
- TGI (NCI-H460 lung): > 100 µM
- TGI (SR leukemia): > 100 µM
- TGI (LOX IMVI melanoma): > 100 µM
- TGI (COLO 205 colon): > 100 µM
- TGI (CCRF-CEM leukemia): > 100 µM
- TGI (OVCAR-5 ovarian): > 100 µM
- TGI (SK-OV-3 ovarian): > 100 µM

SMILES: CC1CC(=O)c2c(ccc3c2C(=O)c2cccc(O)c2C3=O)C1 (stereo not drawn)
- TGI (EKVX NSCLC): 28 µM
- TGI (SNB-78 CNS): 45.7 µM
- TGI (SNB-19 CNS): 26.1 µM
- TGI (NCI-H23 lung): 27.1 µM
- TGI (MALME-3M melanoma): 19.8 µM
- TGI (A498 renal): 27.5 µM
- TGI (U251 CNS): 26.5 µM
- TGI (SK-MEL-2 melanoma): 22.6 µM
- TGI (NCI-H226 lung): 34.3 µM
- TGI (OVCAR-4 ovarian): 25.3 µM
- TGI (SW-620 colon): 17.4 µM
- TGI (DMS 273 small cell lung): 18.5 µM
- TGI (K-562 leukemia): 10.6 µM
- TGI (DLD-1 colon): 9.56 µM
- TGI (KM12 colon): 26.7 µM
- TGI (HCT-116 colon): 20.1 µM
- TGI (HOP-92 NSCLC): 13.1 µM
- TGI (RXF-631 renal): 29.8 µM
- TGI (UACC-257 melanoma): 19.2 µM
- TGI (M19-MEL melanoma): 4.96 µM
- TGI (A549 NSCLC): 26.4 µM
- TGI (XF 498 CNS): 25.1 µM
- TGI (LXFL 529 NSCLC): 14.1 µM
- TGI (HCC-2998 colon): 23.2 µM
- TGI (RPMI-8226 leukemia): 39.1 µM
- TGI (SNB-75 CNS): 22.9 µM
- TGI (SF-539 CNS): 29.5 µM
- TGI (SF-268 CNS): 31.1 µM
- TGI (OVCAR-8 ovarian): 11.1 µM
- TGI (HT29 colon): 18.5 µM
- TGI (DMS 114 small cell lung): 25.4 µM
- TGI (MOLT-4 leukemia): 9.57 µM
- TGI (SK-MEL-28 melanoma): 26.6 µM
- TGI (M14 melanoma): 10.7 µM
- TGI (SF-295 CNS): 23.2 µM
- TGI (UACC-62 melanoma): 22.4 µM
- TGI (786-0 renal): 21.2 µM
- TGI (UO-31 renal): 24.2 µM
- TGI (HOP-18 NSCLC): 21.2 µM
- TGI (SK-MEL-5 melanoma): 8.48 µM
- TGI (HCT-15 colon): 22.9 µM
- TGI (HL-60(TB) leukemia): 18.1 µM
- TGI (NCI-H522 lung): 12.7 µM
- TGI (NCI-H460 lung): 19.5 µM
- TGI (SR leukemia): 35.9 µM
- TGI (OVCAR-3 ovarian): 16.5 µM
- TGI (LOX IMVI melanoma): 16 µM
- TGI (COLO 205 colon): 25.2 µM
- TGI (CCRF-CEM leukemia): 7.97 µM
- TGI (OVCAR-5 ovarian): 36.1 µM
- TGI (SK-OV-3 ovarian): 57.2 µM

— PubChem BioAssay (NCI)
